Source: US10166253B2, “Positively charged co-polymers for use as antimicrobial agents” (priority 2014, dated 2019)

Experiments:
[1] = test system: E. coli (strain NCTC 10418); test: Colony-forming unit (CFU) counting; type: cell-based, Escherichia coli; settings: 30 minutes at 37° C. in PBS, even at 2 μg/ml
Protocol: Late-log phase E. coli (strain NCTC 10418), P. aeruginosa (strain PAO1, ATCC 15692) and S. aureus (Wood 46, NCTC 7121) were resuspended in PBS and treated with different concentrations of glatiramer acetate (GA) or LL-37 (Innovagen, Lund, Sweden) and incubated on a shaker for 30 minutes at 37° C. Subsequently, a dilution series was performed to achieve a suitable amount of bacteria on the 5% blood agar plates. The 5% blood agar streak plates were cultured at 37° C. for 16 h and the resulting CFUs on the blood agar plates were imaged with a digital camera and counted with the aid of the software ImageJ 1.48v.

[2] = test system: S. aureus (Wood 46, NCTC 7121); test: Antimicrobial susceptibility testing by flow cytometry-based assay (LIVE/DEAD BacLight, Syto9/PI); type: cell-based, Staphylococcus aureus; settings: 30 minutes
Protocol: (§1) E. coli (strain NCTC 10418), P. aeruginosa (Strain PAO1) and S. aureus (Wood 46, NCTC 7121) cells were grown in 5 mL of Todd Hewitt Broth medium (THB; Sigma-Aldrich). Bacteria were cultivated at 37° C. for 15 h in a 15 mL tube to obtain late-log phase cultures. Bacterial cultures were pelleted at 3096 g for 10 minutes; the supernatant was discarded and bacteria were resuspended in phosphate-buffered saline (PBS) supplemented with 40 mg/ml human albumin to mimic chemical properties of blood. Bacteria were diluted to a standardized inoculum of 10^9 CFU/mL.
(§2) Bacteria were treated with GA, LL-37, Piperacillin/Tazobactam or Vancomycin in varying concentrations, i.e. 50, 25, 10 or 2 μg/ml, for 30 minutes. As a positive control, bacteria were treated with 7% isopropanol. Hereafter, bacteria were pelleted at 3096 g for 10 minutes; the supernatant was discarded and bacteria were resuspended in PBS. The antimicrobial effect was tested in a well-established and widely used flow cytometry-based assay (LIVE/DEAD® BacLight™ Bacterial Viability and Counting Kit (L34856), Molecular Probes/Invitrogen) according to manufacturer's manual.
(§3) For each bacteria, the flow cytometry-based assay was repeated four times.

[3] = test system: E. coli (strain NCTC 10418); test: as above; type: cell-based, Escherichia coli; settings: 50 μg/ml, 30 minutes
Protocol: as §1, §2, §3
Flow cytometry was used to determine the antimicrobial activity of GA and LL-37. The flow cytometry diagrams show the results after treatment with 50 μg/ml LL-37, GA, piperacillin/tazobactam, 7% isopropanol and the untreated control. […] This gating strategy was primarily applied to avoid counting beads in the upper right corner of the FS-SS. […] Thus, a two-color fluorescence assay of bacterial viability, including PI and Syto9 staining, was applied. Syto9 stains all bacteria in a population, i.e. those with intact and those with damaged membranes. In contrast, propidium iodide (PI) penetrates only bacteria with damaged membranes, thereby making quantification of bacterial viability possible.

[4] = test system: E. coli (NCTC 10418); test: Transmission electron microscopy of treated bacteria; type: cell-based, Escherichia coli
Description: (§4) Transmission electron microscopy (TEM) was applied to examine the ultrastructural changes in P. aeruginosa (PAO1), S. aureus (Wood 46) and E. coli (NCTC 10418) induced after treatment with GA and LL-37. […] This critical alteration in the outer membrane of E. coli has previously been described as a disintegration of the outer membrane into micelles and vesicle-like structures (Meincken, M., D. L. Holroyd, and M. Rautenbach, Atomic force microscopy study of the effect of antimicrobial peptides on the cell envelope of Escherichia coli. Antimicrob Agents Chemother, 2005. 49(10): p. 4085-92). […] After incubation with LL-37 and GA, we found burst cells, but this observation was most significant after treatment with LL-37 (FIG. 9). Scale bar, 0.5 μm. Experiments were performed as 2 replicates.

[5] = test system: S. aureus (Wood 46); test: as above; type: cell-based, Staphylococcus aureus
Description: as §4

## Glatiramer acetate [GA]
[1]
  antibacterial effect by CFU counting (in words): enhanced ability to kill E. coli
[2]
  percentage of bacteria testing positive for PI: 12.1%
[3]
  percentage of bacteria testing positive for PI: 17.7%
  percentage of bacteria testing positive for Syto-9: 78.3%
[4]
  ultrastructural changes (TEM, in words): Signs of damage to the bacterial membrane
[5]
  ultrastructural changes (TEM, in words): burst cells
